Measurements reported in patent publication US20120232158A1, “METHODS OF TREATING HYPERACIDIC DISORDERS” (Yale Univeristy, priority 2008, published 2012).
Entries after “also recorded” stand apart in the source; their conditions may differ.

What was measured:
Format in all cases: cell-based
[1] = system: gastric glands (gastric parietal cells); experiment: Acid secretion by superfused gastric glands of CaSR knockout (Casr−/−; Gcm2−/−) mice; settings: glands from Casr−/−, FIG. 2; for acid secretion stimulated by natural secretagogue: 100 μM, Gcm2−/− mice
Experimental: (§1) Male (Casr^+/+; Gcm2^−/−) or CaSR knockout (Casr^−/−; Gcm2^−/−) mice weighing 22-27 grams (upper panel) or male Sprague-Dawley rats weighing 220-275 grams (lower panel) were fasted with ad lib access to water for 18 hours prior to experimentation. The animals were exposed to an overdose of isofluorane and the stomach was removed by a total gastrectomy. The corpus was removed from the stomach and sectioned at 4° C. All mice were generated at Yale University from a breeding colony. Male Sprague-Dawley rats were purchased from Charles River Laboratories Inc. (Wilmington, Mass.). All animals were cared for according to the standard protocols of the Yale University Animal Care and Use Committee.
The HEPES-Ringer solution contained (in mmol/L): NaCl 125; KCl 5; MgCl2 0.5; HEPES 22, CaCl2 0.1 or 1.6; glucose 10, pH=7.4. The solution was bubbled with 100% O2. 2′,7′-bis′(carboxyethyl)-5-(6)-carboxyfluorescein (BCECF) from Invitrogen (Seattle, Wash., USA) and stock solutions were prepared in dimethyl sulphoxide (DMSO).
(§2) Individual gastric glands were hand dissected and transferred to the stage of an inverted microscope where they were loaded with the intracellular pH marker BCECF. Once loaded with the dye the glands were superfused with normal HEPES Ringer solution at 37° C. and at a pH of 7.4 for 5 minutes. The glands were then challenged with 20 mM NH4Cl and 0 mM Na to induce an acid load within the cell. The rate of recover was then calculated in the presence or absence of the calcimimetic Compound A at either 10 or 100 nM concentration.
(§3) The rate of recovery in the absence of Na was recorded for each parietal cell and then summated and the mean ±SEM of the data for each gland and then for each animal determined. […] The recovery rates are determined as the rate of recovery following an acid load. This rate determines how fast the cell can extrude protons and provides a measure of the activity of the gastric H,K-ATPase proton pump.
Gastric acid secretion is measured in Casr^−/−; Gcm2^−/− mice that lack a functional CaSR.

[2] = system: gastric glands (gastric parietal cells); experiment: Acid secretion by superfused gastric glands isolated from control Casr+/+; Gcm2−/− mice (rate of recovery after acid load, BCECF); settings: FIG. 1
Experimental: as §1
(§4) The HEPES-Ringer solution contained (in mmol/L): NaCl 125; KCl 5; MgCl2 0.5; HEPES 22, CaCl2 0.1 or 1.6; glucose 10, pH=7.4. […]
(§5) Individual gastric glands were hand dissected and transferred to the stage of an inverted microscope where they were loaded with the intracellular pH marker BCECF. […] The rate of recover was then calculated in the presence or absence of the calcimimetic Compound A at either 10 or 100 nM concentration.
(§6) The rate of recovery in the absence of Na was recorded for each parietal cell and then summated and the mean ±SEM of the data for each gland and then for each animal determined. […] The recovery rates are determined as the rate of recovery following an acid load. […]

[3] = system: gastric glands (gastric parietal cells); experiment: Acid secretion by superfused gastric glands isolated from Sprague-Dawley rats (rate of recovery after acid load, BCECF); settings: FIG. 1
Experimental: as §1, §4, §5, §6

[4] = system: gastric glands (gastric parietal cells); experiment: Secretagogue (histamine) induced acid secretion in superfused gastric glands from Sprague-Dawley rats; settings: rat glands treated with secretagogue (histamine) first (bars B, C, D); FIG. 6
Experimental: The HEPES-Ringer solution contained (in mmol/L): NaCl 125; KCl 5; MgCl2 0.5; HEPES 22, CaCl2 0.1 or 1.6; glucose 10, pH=7.4. The solution was bubbled with 100% O2. 2′,7′-bis′(carboxyethyl)-5-(6)-carboxyfluorescein (BCECF) from Invitrogen (Seattle, Wash., USA) and stock solutions were prepared in dimethyl sulphoxide (DMSO). […]

[5] = system: gastric glands (gastric parietal cells); experiment: Secretagogue (acetyl choline) induced acid secretion in mouse gastric glands with functional CaSR; settings: 100 μM acetyl choline, calcilytic at 10 or 100 nM, mice with functional CaSR (Casr+/+; Gcm2−/−), FIG. 3
[6] = system: gastric glands (gastric parietal cells); experiment: Acid secretion by superfused gastric glands from mice with constitutively active gastric H,K-ATPase proton pump; settings: mice with functional CaSR and constitutively active H,K-ATPase; FIG. 5
Experimental: as §2, §3
These mice have a mutation in the gastric H,K-ATPase proton pump that renders the pump constitutively active.

Structure (SMILES): NCCc1c[nH]cn1 [histamine]
- acid secretion stimulated by natural secretagogue [1]: able to increase acid secretion; also recorded: increases acid secretion

Structure (SMILES): C[N+](C)(C)CCOC(N)=O [carbachol]
- acid secretion stimulated by natural secretagogue [1]: able to increase acid secretion; also recorded: increases acid secretion

Structure (SMILES): COc1cccc(C(C)NCCCc2ccccc2Cl)c1 (stereo not drawn) [Compound A, 3-(2-chlorophenyl)-N-(1-(3-(methyloxy)phenyl)ethyl)-1-propanamine]
- concentration dependence of the effect on acid secretion [2]: concentration dependent
- concentration dependence of the effect on acid secretion [3]: concentration dependent
- effect on basal acid secretion ([1]; Gcm2−/− mice lacking functional CaSR): unable to increase acid secretion
- effect on secretagogue induced acid secretion [4]: decreased acid secretion

Structure (SMILES): CC(C)(Cc1ccc2ccccc2c1)NCC(O)COc1cccc(Cl)c1C#N (stereo not drawn) [Compound B, 2-chloro-6-(2-hydroxy-3-(2-methyl-1-(naphthalen-2-yl)propan-2-ylamino)propoxy)benzonitrile]
- inhibition of secretagogue induced acid secretion [5]: inhibition of acid secretion in a concentration dependent fashion
- inhibition of secretagogue induced acid secretion ([5]; listed as compound B): reduces acid secretion in a dose-dependent manner
- inhibition of acid secretion [6]: suppresses gastric acid secretion in a concentration-dependent fashion; also recorded: reduce acid secretion
